Experimental data from US20230095836A1, “SUBSTITUTED 5,6-DIPHENYL-3(2H)-PYRIDAZINONES FOR USE AS FUNGICIDES” (FMC Corporation, priority 2020, published 2023).

How the values were obtained:
Assay type in all cases: in vivo
Zymoseptoria tritici = assay: Test A: test solution sprayed on wheat seedlings, inoculated next day with Zymoseptoria tritici (wheat leaf blotch); disease rating (100 = 100% disease control, 0 = no control; dash = not tested)
Experimental: The resulting test suspensions were then used in Tests A-F. The test solution was sprayed to the point of run-off on wheat seedlings. The following day the seedlings were inoculated with a spore suspension of Zymoseptoria tritici (the causal agent of wheat leaf blotch) and incubated in a saturated atmosphere at 24° C. for 48 h, and then moved to a growth chamber at 20° C. for 17 days, after which time disease ratings were made. A rating of 100 indicates 100% disease control and a rating of 0 indicates no disease control (relative to the controls). A dash (—) indicates the compound was not tested.

[1] = test system: Puccinia recondita f. sp. tritici; assay: Test B: test solution sprayed on wheat seedlings, inoculated next day with Puccinia recondita f. sp. tritici (wheat leaf rust); disease rating (100 = 100% disease control, 0 = no control; dash = not tested)
Source text: The resulting test suspensions were then used in Tests A-F. The test solution was sprayed to the point of run-off on wheat seedlings. […] A rating of 100 indicates 100% disease control and a rating of 0 indicates no disease control (relative to the controls). A dash (—) indicates the compound was not tested.

[2] = test system: Blumeria graminis f. sp. tritici; assay: Test C: test suspension sprayed on wheat seedlings, inoculated next day with Blumeria graminis f. sp. tritici (wheat powdery mildew); visual disease rating (100 = 100% disease control, 0 = no control; dash = not tested)
Experimental: The resulting test suspensions were then used in Tests A-F. The test suspension was sprayed to the point of run-off on wheat seedlings. The following day the seedlings were inoculated with a spore dust of Blumeria graminis f. sp. tritici, (also known as Erysiphe graminis f. sp. tritici, the causal agent of wheat powdery mildew) and incubated in a growth chamber at 20° C. for 8 days, after which time visual disease ratings were made. A rating of 100 indicates 100% disease control and a rating of 0 indicates no disease control (relative to the controls). A dash (—) indicates the compound was not tested.

Phakopsora pachyrhizi = assay: Test D: test solution sprayed on soybean seedlings, inoculated next day with Phakopsora pachyrhizi (Asian soybean rust); visual disease rating (100 = 100% disease control, 0 = no control; dash = not tested)
Source text: General protocol for preparing test suspensions for Tests A-F: the test compounds were first dissolved in acetone in an amount equal to 3% of the final volume and then suspended at the desired concentration (in ppm) in acetone and purified water (50/50 mix by volume) containing 250 ppm of the surfactant PEG400 (polyhydric alcohol esters). The resulting test suspensions were then used in Tests A-F.
The test solution was sprayed to the point of run-off on soybean seedlings. The following day the seedlings were inoculated with a spore suspension of Phakopsora pachyrhizi (the causal agent of Asian soybean rust) and incubated in a saturated atmosphere at 22° C. for 24 h and then moved to a growth chamber at 22° C. for 8 days, after which time visual disease ratings were made.
A rating of 100 indicates 100% disease control and a rating of 0 indicates no disease control (relative to the controls). A dash (—) indicates the compound was not tested.

Botrytis cinerea = assay: Test E: test suspension sprayed on tomato seedlings, inoculated next day with Botrytis cinerea (tomato Botrytis); visual disease rating (100 = 100% disease control, 0 = no control; dash = not tested)
Experimental: (§1) The resulting test suspensions were then used in Tests A-F. The test suspension was sprayed to the point of run-off on tomato seedlings. The following day the seedlings were inoculated with a spore suspension of Botrytis cinerea (the causal agent of tomato Botrytis) and incubated in a saturated atmosphere at 20° C. for 48 h, and then moved to a growth chamber at 24° C. for 3 days, after which time visual disease ratings were made. A rating of 100 indicates 100% disease control and a rating of 0 indicates no disease control (relative to the controls). A dash (—) indicates the compound was not tested.

Alternaria solani = assay: Test F: test suspension sprayed on tomato seedlings, inoculated next day with Alternaria solani (tomato early blight); visual disease rating (100 = 100% disease control, 0 = no control; dash = not tested)
Experimental: as §1, with “Alternaria solani” for “Botrytis cinerea”, “early blight)” for “Botrytis)”, “27°” for “20°”, “20°” for “24°”

| SMILES | Test A disease control rating (Zymoseptoria tritici; 50 ppm) [%] | Test B disease control rating ([1]; 50 ppm) [%] | Test C disease control rating ([2]; 50 ppm) [%] | Test D disease control rating (Phakopsora pachyrhizi; 50 ppm) [%] | Test E disease control rating (Botrytis cinerea; 50 ppm) [%] | Test F disease control rating (Alternaria solani; 50 ppm) [%] | Test A disease control rating (Zymoseptoria tritici; 250 ppm) [%] | Test B disease control rating ([1]; 250 ppm) [%] | Test C disease control rating ([2]; 250 ppm) [%] | Test D disease control rating (Phakopsora pachyrhizi; 250 ppm) [%] | Test E disease control rating (Botrytis cinerea; 250 ppm) [%] | Test F disease control rating (Alternaria solani; 250 ppm) [%] | further results |
| --- | --- | --- | --- | --- | --- | --- | --- | --- | --- | --- | --- | --- | --- |
| Cn1nc(-c2ccccc2)c(-c2ccc(F)cc2Cl)c(Cl)c1=O [Compound 141, 4-chloro-5-(2-chloro-4-fluorophenyl)-2-methyl-6-phenyl-3(2H)-pyridazinone] | – | – | – | – | – | – | – | – | – | – | – | – | pest or weed control at 50 ppm (Zymoseptoria tritici; 50 ppm): 99%; pest or weed control at 50 ppm ([1]; 50 ppm): 98%; pest or weed control at 50 ppm ([2]; 50 ppm): 99%; pest or weed control at 50 ppm (Phakopsora pachyrhizi; 50 ppm): 0%; pest or weed control at 50 ppm (Botrytis cinerea; 50 ppm): 98%; pest or weed control at 50 ppm (Alternaria solani; 50 ppm): 99% |
| CCCc1c(-c2ccc(F)cc2Cl)c(-c2cc(OC)ccc2Cl)nn(C)c1=O [Compound 125] | 100 | 0 | 97 | 17 | 99 | 0 | – | – | – | – | – | – | – |
| CCn1nc(-c2ccc(F)cc2Cl)c(-c2ccc(F)cc2Cl)c(C#N)c1=O [Compound 7] | – | – | – | – | – | – | 98 | 74 | 0 | 0 | 99 | 0 | – |
| COc1cc(C#N)c(Cl)c(-c2nn(C)c(=O)c(Cl)c2-c2ccc(F)cc2Cl)c1 [Compound 51] | 100 | 100 | 99 | 100 | 96 | 100 | – | – | – | – | – | – | – |
| COc1ccc(Cl)c(-c2nn(C)c(=O)c(Br)c2-c2c(F)cccc2F)c1 [Compound 69] | 100 | 99 | 100 | 100 | 100 | 100 | – | – | – | – | – | – | – |
| CON(C)C(=O)c1c(-c2ccc(F)cc2Cl)c(-c2ccc(F)cc2Cl)nn(C)c1=O [Compound 176] | – | – | – | – | – | – | 4 | 80 | 0 | 0 | 0 | 0 | – |
| COc1ccc(-c2nn(C)c(=O)cc2-c2c(F)cccc2F)c(F)c1 [Compound 192] | – | – | – | – | – | – | 38 | 80 | 84 | 91 | 93 | 0 | – |
| CCn1nc(-c2cc(OC)cc(OC)c2)c(-c2c(F)cccc2F)cc1=O [Compound 32] | – | – | – | – | – | – | 0 | 9 | 29 | 0 | 80 | 0 | – |
| COc1cc(OC)cc(-c2nn(C)c(=O)c(Br)c2-c2ccc(F)cc2Cl)c1 [Compound 67] | 99 | 100 | 95 | 98 | 99 | 99 | – | – | – | – | – | – | – |
| CCn1nc(-c2cc(OC)cc(OC)c2Br)c(-c2c(F)cccc2F)c(Br)c1=O [Compound 16] | 99 | 97 | 97 | 84 | 99 | 94 | – | – | – | – | – | – | – |
| COc1cc(OC)cc(-c2nn(C)c(=O)c(OC)c2-c2ccc(F)cc2Cl)c1 [Compound 78] | 100 | 99 | 98 | 59 | 95 | 99 | – | – | – | – | – | – | – |
